Data on 33 compounds can be found in US10005774B2, “Syk inhibitors” (Gilead Sciences, Inc., priority 2013, dated 2018).

One assay deals with Syk (Homo sapiens, UniProt P43405). Put plainly: High Throughput Syk Biochemical Assay (KinEASE TR-FRET). The settings on record: TABLE D, 20 μM ATP, 1 μM biotinylated peptide, 0.015 nM Syk, 30 min at room temperature, read-out: IC50. In a few lines:
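Two-step endpoint TR-FRET (KinEASE) measured Syk phosphorylation of an XL665-labelled peptide, detected with europium anti-phosphotyrosine antibody. Compounds were serially diluted in DMSO.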
Background: TR-FRET usually uses a lanthanide donor and a delayed reading to cut background.
One may read the IC50 as the concentration at which inhibition is half-maximal. On to `C[C@@H](Oc1cc(-c2ccc(N3CCOCC3)cc2)cc2ncsc12)[C@H]1CNC(=O)C1` (stereo in doubt) [(R)-4-((R)-1-((5-(4-morpholinophenyl)benzo[d]thiazol-7-yl)oxy)ethyl)pyrrolidin-2-one], for which the concentration for half-maximal inhibition (IC50) amounted to 1.82 nM.
For `COc1ccc(-c2cc(O[C@H](C)[C@H]3CNC(=O)C3)c3c(Cl)cnn3c2)cc1OC` [(R)-4-((R)-1-((3-chloro-6-(3,4-dimethoxyphenyl)pyrazolo[1,5-a]pyridin-4-yl)oxy)ethyl)pyrrolidin-2-one], the IC50 was 1.07 nM.
Same read-out and setting: the value for `COc1cccc(-c2cc(O[C@H](C)[C@H]3CNC(=O)C3)c3c(c2)ncn3C)n1` [(R)-4-((R)-1-((5-(6-methoxypyridin-2-yl)-1-methyl-1H-benzo[d]imidazol-7-yl)oxy)ethyl)pyrrolidin-2-one] was 45.7 nM.
For the compound `CC(=O)N1CCN(c2ccc(-c3cc(O[C@H](C)[C@H]4CNC(=O)C4)c4scnc4c3)nc2)CC1` (stereo in doubt) [(R)-4-((R)-1-((5-(5-(4-acetylpiperazin-1-yl)pyridin-2-yl)benzo[d]thiazol-7-yl)oxy)ethyl)pyrrolidin-2-one], the half-inhibitory concentration (IC50) was determined as 1.59 nM.
Same read-out and setting: the value for `COc1ccc(-c2cc3ncn(C)c3c(O[C@H](C)[C@H]3CNC(=O)C3)n2)cc1OC` [(R)-4-((R)-1-(6-(3,4-dimethoxyphenyl)-3-methyl-3H-imidazo[4,5-c]pyridin-4-yloxy)ethyl)pyrrolidin-2-one] was 5.19 nM; that for `C[C@@H](Oc1nc(-c2ccc(N3CCOCC3)cc2)cc2ncn(C)c12)[C@H]1CNC(=O)C1` [(R)-4-((R)-1-(3-methyl-6-(4-morpholinophenyl)-3H-imidazo[4,5-c]pyridin-4-yloxy)ethyl)pyrrolidin-2-one] was 4.6 nM; that for `C[C@@H](Oc1nc(-c2cnn(C3CCOCC3)c2)cc2ncn(C)c12)[C@H]1CNC(=O)C1` [(R)-4-((R)-1-(3-methyl-6-(1-(tetrahydro-2H-pyran-4-yl)-1H-pyrazol-4-yl)-3H-imidazo[4,5-c]pyridin-4-yloxy)ethyl)pyrrolidin-2-one] was 10.2 nM.
As to `C[C@@H](Oc1cc(-c2cnn(C3CCC3)c2)cc2ncsc12)[C@H]1CNC(=O)C1` (stereo in doubt) [(R)-4-((R)-1-((5-(1-cyclobutyl-1H-pyrazol-4-yl)benzo[d]thiazol-7-yl)oxy)ethyl)pyrrolidin-2-one], the IC50 was found to be 0.693 nM.
Regarding `COc1ccc(-c2cc3ncn(C)c3c(O[C@H](C)[C@H]3CNC(=O)C3)n2)nc1OC` [(R)-4-((R)-1-(6-(5,6-dimethoxypyridin-2-yl)-3-methyl-3H-imidazo[4,5-c]pyridin-4-yloxy)ethyl)pyrrolidin-2-one], the IC50 was determined as 34 nM.
On the same count and under the same terms, the value for `COc1cc(-c2cc3ncn(C)c3c(O[C@H](C)[C@H]3CNC(=O)C3)n2)ccc1C#N` [2-methoxy-4-(3-methyl-4-((R)-1-((R)-5-oxopyrrolidin-3-yl)ethoxy)-3H-imidazo[4,5-c]pyridin-6-yl)benzonitrile] was 74.2 nM.
On the same count and under the same terms, the same measure for `C[C@@H](Oc1nc(-c2cnn(CC(F)F)c2)cc2ncn(C(F)F)c12)[C@H]1CNC(=O)C1` [(R)-4-((R)-1-(6-(1-(2,2-difluoroethyl)-1H-pyrazol-4-yl)-3-(difluoromethyl)-3H-imidazo[4,5-c]pyridin-4-yloxy)ethyl)pyrrolidin-2-one]: 3.31 nM; for `C[C@@H](Oc1nc(-c2cnn3ccccc23)cc2ncn(C)c12)[C@H]1CNC(=O)C1` [(R)-4-((R)-1-(3-methyl-6-(pyrazolo[1,5-a]pyridin-3-yl)-3H-imidazo[4,5-c]pyridin-4-yloxy)ethyl)pyrrolidin-2-one]: 12.7 nM; for `C[C@@H](Oc1cc(-c2cnn(C(C)(C)C)c2)cn2ncc(Cl)c12)[C@H]1CNC(=O)C1` [(R)-4-((R)-1-((6-(1-(tert-butyl)-1H-pyrazol-4-yl)-3-chloropyrazolo[1,5-a]pyridin-4-yl)oxy)ethyl)pyrrolidin-2-one]: 0.271 nM.

Staying with this assay, now noted: table 'ALL NEW COMPOUNDS IN 2014', 20 μM ATP, 1 μM biotinylated peptide, 0.015 nM Syk, 30 min at room temperature, read-out: Syk IC50.
On to `C[C@@H](Oc1cc(-c2ccccn2)cc2ncn(C3CC3)c12)[C@H]1CNC(=O)C1` [(R)-4-((R)-1-((1-cyclopropyl-5-(pyridin-2-yl)-1H-benzo[d]imidazol-7-yl)oxy)ethyl)pyrrolidin-2-one], for which the IC50 was 10.6 nM.
Regarding `C[C@@H](Oc1nc(-c2ccc(C3(O)CC3)cc2)cc2ncn(C3CC3)c12)[C@H]1CNC(=O)C1`, the IC50 worked out at 8.52 nM.
As for `Cc1nnc(-c2cc(O[C@H](C)[C@H]3CNC(=O)C3)c3c(c2)ncn3C2CC2)s1` [(R)-4-((R)-1-((1-cyclopropyl-5-(5-methyl-1,3,4-thiadiazol-2-yl)-1H-benzo[d]imidazol-7-yl)oxy)ethyl)pyrrolidin-2-one], the half-inhibitory concentration (IC50) was 5.45 nM.
As to `C[C@@H](Oc1nc(-c2cnc(N3CCN(C4COC4)CC3)c(F)c2)cc2ncn(C3CC3)c12)[C@H]1CNC(=O)C1` [(R)-4-((R)-1-((3-cyclopropyl-6-(5-fluoro-6-(4-(oxetan-3-yl)piperazin-1-yl)pyridin-3-yl)-3H-imidazo[4,5-c]pyridin-4-yl)oxy)ethyl)pyrrolidin-2-one], the IC50 was 17.2 nM.
For `C[C@@H](Oc1nc(-c2ccc(N3CC(N4CCOCC4)C3)cc2)cc2ncn(C3CC3)c12)[C@H]1CNC(=O)C1` [(R)-4-((R)-1-((3-cyclopropyl-6-(4-(3-morpholinoazetidin-1-yl)phenyl)-3H-imidazo[4,5-c]pyridin-4-yl)oxy)ethyl)pyrrolidin-2-one], the IC50 came out at 5.69 nM.
Regarding `C[C@@H](Oc1nc(-c2cnc(N3CCOCC3)s2)cc2ncn(C3CC3)c12)[C@H]1CNC(=O)C1` [(R)-4-((R)-1-((3-cyclopropyl-6-(2-morpholinothiazol-5-yl)-3H-imidazo[4,5-c]pyridin-4-yl)oxy)ethyl)pyrrolidin-2-one], the 50% inhibitory concentration (IC50) worked out at 2.13 nM.
As for `COc1cc(-c2cc(O[C@H](C)[C@H]3CNC(=O)C3)c3c(c2)ncn3C2CC2)ccc1OC(F)F` [(R)-4-((R)-1-((1-cyclopropyl-5-(4-(difluoromethoxy)-3-methoxyphenyl)-1H-benzo[d]imidazol-7-yl)oxy)ethyl)pyrrolidin-2-one], the IC50 stood at 23.1 nM.
Regarding `CCOc1cc(-c2cc(O[C@H](C)[C@H]3CNC(=O)C3)c3c(c2)ncn3C2CC2)ccc1OC` [(R)-4-((R)-1-((1-cyclopropyl-5-(3-ethoxy-4-methoxyphenyl)-1H-benzo[d]imidazol-7-yl)oxy)ethyl)pyrrolidin-2-one], the IC50 was 12.9 nM.
With `C[C@@H](Oc1nc(-c2ccc(N3CCN(C4COC4)CC3)cc2F)cc2ncn(C3CC3)c12)[C@H]1CNC(=O)C1` [(R)-4-((R)-1-((3-cyclopropyl-6-(2-fluoro-4-(4-(oxetan-3-yl)piperazin-1-yl)phenyl)-3H-imidazo[4,5-c]pyridin-4-yl)oxy)ethyl)pyrrolidin-2-one], the concentration for half-maximal inhibition (IC50) was 10.1 nM.
“(R)-4-((R)-1-((3-cyclopropyl-6-(3,4-dimethoxyphenyl)-3H-imidazo[4,5-c]pyridin-4-yl)oxy)ethyl)pyrrolidin-2-one”: the half-inhibitory concentration (IC50) came out at 6.57 nM.
`Cc1ccc(-c2cc3ncn(C4CC4)c3c(O[C@H](C)[C@H]3CNC(=O)C3)n2)s1` [(R)-4-((R)-1-((3-cyclopropyl-6-(5-methylthiophen-2-yl)-3H-imidazo[4,5-c]pyridin-4-yl)oxy)ethyl)pyrrolidin-2-one]: the IC50 is 7.43 nM.
Take `C[C@@H](Oc1cc(-c2ccncn2)cc2ncn(C3CC3)c12)[C@H]1CNC(=O)C1` [(R)-4-((R)-1-((1-cyclopropyl-5-(pyrimidin-4-yl)-1H-benzo[d]imidazol-7-yl)oxy)ethyl)pyrrolidin-2-one]: the half-inhibitory concentration (IC50) worked out at 24.6 nM.
Take `C[C@@H](Oc1cc(-c2ccc3c(c2)NCC3(C)C)cc2ncn(C3CC3)c12)[C@H]1CNC(=O)C1` [(R)-4-((R)-1-((1-cyclopropyl-5-(3,3-dimethylindolin-6-yl)-1H-benzo[d]imidazol-7-yl)oxy)ethyl)pyrrolidin-2-one]: the IC50 stood at 9.11 nM.
For the compound `C[C@@H](Oc1nc(-c2ccc(N3CC4CC(C3)O4)cc2)cc2ncn(C3CC3)c12)[C@H]1CNC(=O)C1` [(4R)-4-((1R)-1-((6-(4-(6-oxa-3-azabicyclo[3.1.1]heptan-3-yl)phenyl)-3-cyclopropyl-3H-imidazo[4,5-c]pyridin-4-yl)oxy)ethyl)pyrrolidin-2-one], the IC50 is 3.21 nM.
Regarding `C[C@@H](Oc1nc(-c2ccc(N3CCN(C4COC4)CC3)cc2)cc2ncn(CCO)c12)[C@H]1CNC(=O)C1` [(R)-4-((R)-1-((3-(2-hydroxyethyl)-6-(4-(4-(oxetan-3-yl)piperazin-1-yl)phenyl)-3H-imidazo[4,5-c]pyridin-4-yl)oxy)ethyl)pyrrolidin-2-one], the IC50 is 135 nM.
Turning to `C[C@@H](Oc1cc(-c2cnc(C(C)(C)O)s2)cc2ncn(C3CC3)c12)[C@H]1CNC(=O)C1` [(R)-4-((R)-1-((1-cyclopropyl-5-(2-(2-hydroxypropan-2-yl)thiazol-5-yl)-1H-benzo[d]imidazol-7-yl)oxy)ethyl)pyrrolidin-2-one], the 50% inhibitory concentration (IC50) came out at 1.41 nM.
Consider `C[C@@H](Oc1nc(-c2cnn(-c3ccncc3)c2)cc2ncn(C3CC3)c12)[C@H]1CNC(=O)C1`, for which the half-inhibitory concentration (IC50) was 8.29 nM.
In the case of `C[C@@H](Oc1nc(-c2ccc3c(c2)N(C)C(=O)OC3(C)C)cc2ncn(C)c12)[C@H]1CNC(=O)C1` [1,4,4-trimethyl-7-(3-methyl-4-((R)-1-((R)-5-oxopyrrolidin-3-yl)ethoxy)-3H-imidazo[4,5-c]pyridin-6-yl)-1H-benzo[d][1,3]oxazin-2(4H)-one], the 50% inhibitory concentration (IC50) is 2.5 nM.
`C[C@@H](Oc1cc(-c2cnn(CC(C)(C)O)c2)cc2ncn(C3CC3)c12)[C@H]1CNC(=O)C1` [(R)-4-((R)-1-((1-cyclopropyl-5-(1-(2-hydroxy-2-methylpropyl)-1H-pyrazol-4-yl)-1H-benzo[d]imidazol-7-yl)oxy)ethyl)pyrrolidin-2-one]: the IC50 was 1.73 nM.
On to `C[C@@H](Oc1cc(-c2ccc(N3CCC(N4CCOCC4)CC3)cn2)cc2ncn(C3CC3)c12)[C@H]1CNC(=O)C1` [(R)-4-((R)-1-((1-cyclopropyl-5-(5-(4-morpholinopiperidin-1-yl)pyridin-2-yl)-1H-benzo[d]imidazol-7-yl)oxy)ethyl)pyrrolidin-2-one], for which the concentration for half-maximal inhibition (IC50) was found to be 6.85 nM.
